Experimental data from publication PMC10979476, “Molecular Deformation Is a Key Factor in Screening Aggregation Inhibitor for Intrinsically Disordered Protein Tau” (ACS Central Science, 2024).

What was measured:
[1] = tested on: SK-N-SH cells; test: CCK-8 cell survival assay; type: cell-based, human; details: 24 h; for cytotoxicity (in words): different concentrations, SK-N-SH cells
Description: After the above-mentioned systematic study of SAR at the molecular level, we wondered whether these inhibitory effects can be reproduced in the actual biological system, laying the foundation for the discovery of drug lead compounds. Therefore, the cytotoxicity and inhibitory effects of these synthetic compounds were evaluated by human neuroblastoma SK-N-SH cells. […] The cell viability of SK-N-SH was assessed using a cell counting kit-8 (CCK-8) assay.[48] It could be seen that the cell survival rate was still higher than 70% when the concentration of IPP1 reached 30 μM. […]
11. In Vitro Cellular Uptake and Cell Cytotoxicity.
Cell viability was assessed using Cell Counting Kit-8 (CCK-8) assay following the manufacturer’s instructions. SK-N-SH cells were seeded at a density of 2.0 × 10^4 cells per well in a 96-well plate and incubated for 24 h to adhere in a humidified chamber. Then, the cells were treated with various concentrations of compounds IPP1~IPP4 for 24 h. After that, the culture supernatants were removed, and 90 μL of medium and 10 μL of CCK-8 solution were then added. After further incubation for 3 h at 37 °C, the absorbance was measured at 450 nm using Microplate Reader 581 (SpectraMax iD3). Six replicates were used in each group.
12. In Vitro Evaluation of Inhibitory Effects of Inhibitor on Tau Aggregation In SK-N-SH Cell.
The effect of inhibitors on the formation of aggregate tau in SK-N-SH was tested by using the previously reported method15. First, SK-N-SH was grown on glass coverslips in 12-well plate at a […]

[2] = molecular target: T1, tau hexapeptide VQIVYK (Homo sapiens, UniProt P10636); test: Heparin-induced aggregation of tau hexapeptide VQIVYK, fluorescence assay; type: biochemical; details: VQIVYK 15 μM, Figure S15
T1 construct: 306VQIVYK311(15 μM), ThS, VQIVYK+heparin
From the text: The carbonyl group in five-membered ring A in IPP1 forms a hydrogen bond with the amino group on glutamine (GLN307), valine (VAL309), and tyrosine (TYR310). The nitrogen atom in pyridine ring C in IPP1 also forms a hydrogen bond with the amino group of isoleucine (ILE308). Pyridine ring C on IPP1 forms π–π stacking with the benzene ring on TYR310. The five-membered ring A in IPP1 also forms hydrophobic contacts with glycine (GLY304), VAL306, and VAL309, which further increases the interaction between the molecule IPP1 and tau. […] Visually, IPP1 is like a molecular clip that firmly holds the key region, preventing the peptide from freely curling/folding and increasing the possibility to inhibit aggregation. […] As a result, the effective interactions between these compounds and tau peptide chains are much less than those of IPP1. […] To verify the docking results, we directly applied IPP1 to the aggregation of tau hexapeptide VQIVYK (Figure S15). […] The positive experimental results of IPP1 inhibition on tau hexapeptide further confirmed the reliability of our theoretical speculation on the target segment. […]
17. The fluorescence spectra of peptide fragments systems in the presence or absence of IPP1
Figure S15. The fluorescence spectra of peptide fragments systems containing […]

Row | SMILES | cell survival rate ([1]; 30 μM, tau-infected SK-N-SH cells) | cytotoxicity (in words) [1] | aggregation of tau hexapeptide induced by heparin [2]
1 | O=C1Nc2cccc(-c3ccc(N4CCCC4)nc3)c2C1=O [IPP1, 4-(6-(pyrrolidin-1-yl)pyridin-3-yl)indoline-2,3-dione] | higher than 70% | relatively low cytotoxicity | significantly reduced the aggregation of tau hexapeptide
2 | O=C1Nc2ccc(-c3ccc(N4CCCC4)nc3)cc2C1=O [IPP2, 5-(6-(pyrrolidin-1-yl)pyridin-3-yl)indoline-2,3-dione] |  | lowest cytotoxicity | 
3 | O=C1Nc2cc(-c3ccc(N4CCCC4)nc3)ccc2C1=O [IPP3, 6-(6-(pyrrolidin-1-yl)pyridin-3-yl)indoline-2,3-dione] |  | toxicity is not negligible | 
